Measured values taken from patent US8192962B2, “Processes for detecting toxic substances” (Daikin Industries, Ltd., priority 2001, dated 2012).

System: DNA repair protein genes
Experiment: DNA chip mRNA expression in yeast, DNA repair protein genes (Table 3)
Assay type: cell-based, Saccharomyces cerevisiae S288C
Conditions: incubated two hours, concentrations as in the 1st table
How it was run: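 Measured as treated-to-untreated fluorescence ratio on a full-genome yeast DNA chip. Cells (S288C, YPD, 25° C.) were exposed in log phase for two hours to one chemical, dosed to curb growth without killing.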

Measured: The level of expressed mRNA in the presence of chemical substance/The level of expressed mRNA in the absence of chemical substance

COc1cc(CNC(=O)CCCCC=CC(C)C)ccc1O [(12), 8-methyl-N-vanillyl-6-nonenamide]
1.1: yeast gene YDL200C | yeast gene YEL037C | yeast gene YIL072W | yeast gene YJR052W
0.7: yeast gene YCR014C | yeast gene YPL022W | yeast gene YPR025C
1.6: yeast gene YLR103C
1.4: yeast gene YGL127C | yeast gene YMR096W | yeast gene YNL250W
1.3: yeast gene YDL059C | yeast gene YGL058W | yeast gene YGR231C | yeast gene YIR002C | yeast gene YKL145W
4.3: yeast gene YFL014W
1.0: yeast gene YAL015C | yeast gene YDR054C | yeast gene YEL019C | yeast gene YIL153W | yeast gene YJL026W
0.9: yeast gene YAR007C | yeast gene YBR073W | yeast gene YDR369C | yeast gene YGL163C | yeast gene YGR180C | yeast gene YGR258C | yeast gene YIL143C | yeast gene YJR046W | yeast gene YLR233C | yeast gene YML032C | yeast gene YML058W | yeast gene YNL312W | yeast gene YOR005C | yeast gene YPL164C | yeast gene YPL194W
0.6: yeast gene YLR288C | yeast gene YMR284W
0.8: yeast gene YBL019W | yeast gene YDL017W | yeast gene YGL249W | yeast gene YMR072W | yeast gene YNL213C | yeast gene YNL261W | yeast gene YOL043C
0.5: yeast gene YBR272C | yeast gene YMR035W
1.2: yeast gene YGL091C | yeast gene YHR164C | yeast gene YIL036W | yeast gene YOR386W
0.4: yeast gene YER162C
